According to patent US20250353891A1 (MEDIMMUNE LIMITED, priority 2022, published 2025):
pEC50: −log10 of the molar value. Starred links: 1 amine or outer side, 2 acyl side, 3 side chain; linkers in the order of their positions; H or OH if unused. Non-standard residues stand in square brackets, D forms with d. Residues, ends and D or L forms follow the SMILES beside them. Groups on a side chain read outwards from the residue. *: point of attachment. C20 diacid = O=C(O)CCCCCCCCCCCCCCCCCCC(=O)*; C18 diacid = O=C(O)CCCCCCCCCCCCCCCCC(=O)*; γGlu = O=C(O)[C@H](CCC(=O)[*:2])N[*:1]; Stearoyl = CCCCCCCCCCCCCCCCCC(=O)*; αMeF = C[C@](N)(Cc1ccccc1)C(=O)O; PEG2 = NCCOCCOCCC(=O)O; AEEA = NCCOCCOCC(=O)O; Aib = CC(C)(N)C(=O)O

Columns and labels:
[1] = target: human GLP-1 receptor (hGLP-1R) (Homo sapiens, UniProt P43220); assay: cAMP production (HTRF) in CHO cells expressing hGLP-1R; assay type: cell-based; set-up: expressed in transfected cells; conditions: for pEC50: Table 6, peptides modified at position 17, cAMP in CHO hGLP-1R cells, geometric mean, read-out: hGLP-1R EC50; for % Relative Potency Ratio: Table 6, % GLP-1R activity relative to GLP-1 / % GlucR activity relative to glucagon
Sequence of human GLP-1 receptor (hGLP-1R) (P43220 24-463): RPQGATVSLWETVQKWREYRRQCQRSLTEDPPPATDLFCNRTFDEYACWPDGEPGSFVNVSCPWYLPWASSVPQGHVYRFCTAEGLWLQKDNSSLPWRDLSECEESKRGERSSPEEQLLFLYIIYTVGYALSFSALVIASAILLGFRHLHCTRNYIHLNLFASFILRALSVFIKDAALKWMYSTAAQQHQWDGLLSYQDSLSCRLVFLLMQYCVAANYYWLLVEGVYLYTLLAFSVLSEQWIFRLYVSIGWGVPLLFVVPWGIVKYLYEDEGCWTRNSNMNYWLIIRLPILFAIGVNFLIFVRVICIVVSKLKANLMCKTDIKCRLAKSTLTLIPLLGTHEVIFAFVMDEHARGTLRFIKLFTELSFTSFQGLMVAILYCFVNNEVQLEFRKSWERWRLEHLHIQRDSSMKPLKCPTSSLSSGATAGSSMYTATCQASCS
Procedure, shortened: (§1)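 Read-out: HTRF cAMP (anti-cAMP cryptate donor, cAMP-d2 acceptor in conjugate/lysis buffer), converted to % Delta F and fitted by 4-parameter logistic for EC50. Cell densities were 1×10^5 cells/mL (hGLP-1R) or 2×10^5 cells/mL (hGCGR). Stimulation lasted 30 min at room temperature.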

[2] = Proteolytic resistance to FasSSIF/Pancreatin; assay type: in vitro ADME; conditions: simulated intestinal fluid
Procedure, shortened: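 Peptide (1.0 mg) in pre-warmed FasSSIF, proteolysis started with fresh FasSSIF/USP Pancreatin and held at 37 °C. Aliquots at 0, 5, 10, 15, 30 min quenched in 10% TFA; remaining intact peptide estimated by RP-HPLC peak area, UV 210 nm.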

[3] = system: wildtype (WT) mice; assay: Glucose change in wildtype mice; assay type: in vivo, mouse; conditions: s.c., 3 nmol/kg, 120 min vs 0 min, no somatostatin pretreatment
Procedure, shortened: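 Wildtype mice aged 8-14 weeks, fasted 2 h, sometimes pre-treated with octreotide 10 mg/kg 30 min before peptide injection. Blood glucose by glucometer at -30, 0, 30, 60, 120, 180, 240 and 360 min; n=4-8/group, mice reused up to 3 times with ≥1 week wash-out.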

[4] = target: T1, recombinant Neprilysin (Homo sapiens, UniProt P08473); assay: Proteolytic resistance to neprilysin; assay type: in vitro ADME; conditions: pH 8.3
T1 construct: purchased R&D Systems 1182-ZNC-010
T1 sequence (P08473 52-750 limits assumed): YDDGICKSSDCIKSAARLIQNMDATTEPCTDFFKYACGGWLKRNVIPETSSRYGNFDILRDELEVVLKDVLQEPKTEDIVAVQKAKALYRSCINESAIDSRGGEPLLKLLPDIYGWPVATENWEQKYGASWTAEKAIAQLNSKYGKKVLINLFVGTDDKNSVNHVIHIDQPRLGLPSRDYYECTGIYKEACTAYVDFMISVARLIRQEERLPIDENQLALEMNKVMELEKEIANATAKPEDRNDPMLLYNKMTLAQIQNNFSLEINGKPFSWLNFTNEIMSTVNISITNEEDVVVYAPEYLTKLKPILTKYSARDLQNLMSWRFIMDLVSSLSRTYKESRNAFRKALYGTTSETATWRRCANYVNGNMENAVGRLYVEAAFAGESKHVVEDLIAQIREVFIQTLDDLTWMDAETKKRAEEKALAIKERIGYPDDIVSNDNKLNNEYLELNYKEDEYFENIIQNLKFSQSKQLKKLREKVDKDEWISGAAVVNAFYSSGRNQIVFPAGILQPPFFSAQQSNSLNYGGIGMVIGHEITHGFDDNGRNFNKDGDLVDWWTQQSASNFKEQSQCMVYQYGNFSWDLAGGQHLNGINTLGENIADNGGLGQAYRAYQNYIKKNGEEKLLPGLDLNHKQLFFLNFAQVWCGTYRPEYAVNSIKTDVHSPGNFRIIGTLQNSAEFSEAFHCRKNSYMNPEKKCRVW
Description: 10.0 μg (˜10 units) recombinant Neprilysin (R&D Systems: 1182-ZNC-010) was reconstituted to 100 μL (100 μg/mL, ˜100 units/mL) in assay buffer (50 mM Tris, 50 mM NaCl, 50 mM NaHCO3, adjusted to pH 8.3) to give the enzyme stock solution. Peptide stock solutions were prepared to a concentration of ˜250 μM (˜1.0 mg/mL of 4 kDa peptide) in assay buffer. 100 μL (10 μg, ˜10 units) of neprilysin stock solution was added to 100 μL of peptide stock solution (1.0 mg/mL, ˜100 μg of peptide) and the mixture was co-incubated in a temperature regulated incubator at 37° C. for the duration of the experiment. 25 μL aliquots (˜ 12.5 μg initial peptide) of the peptide-enzyme mixture were periodically withdrawn (t=0, 30 mins, 1 h, 2 h, 4 h and 24 h) and quenched immediately by addition to an equal volume ([…]) of 10% TFA (v/v) in 1:1 water/acetonitrile to arrest proteolytic activity. The quenched aliquot centrifuged at 7800 rpm, and 30 μL of the supernatant was analyzed by analytical RP-HPLC as follows: Analytical RP-HPLC method: Agilent Polaris C8-A column (4.6×100 mm, 3 micron) eluted with a linear binary gradient of 10-90% MeCN (0.1% TFA v/v) in water (0.1% TFA v/v) over either 10 or 15 mins at 1.5 mL min-1 at 40° C. with detection by UV absorption at 210 nm. Manual integration (AUC) allowed estimation of remaining intact peptide over the time course of the experiment.

[5] = Proteolytic resistance to FasSSGF containing porcine pancreatic pepsin; assay type: in vitro ADME; conditions: pig, simulated gastric fluid
Description: Stimulated Gastric Fluid (FasSSGF) Containing Porcine Pancreatic Pepsin Lyophilized porcine pancreatic pepsin (Sigma: P7012) was reconstituted to 0.5 mg/mL (˜2500 units/mL) in freshly prepared FasSSGF (Biorelevant media) to give the enzyme stock solution. Peptide stock solution was prepared to a concentration of 250 μM (˜1.0 mg/mL) in FasSSGF. 200 μL ([…], ˜250 units) of pepsin stock solution was added to 200 μL of peptide solution (1.0 mg/mL, ˜100 μg of peptide, ˜25 nmoles) and the mixture was co-incubated in a temperature-regulated incubator at 37° C. for the duration of the experiment. 30 μL aliquot of the peptide-enzyme mixture was periodically withdrawn (t=0, 5, 10, 15, and 30 min) and quenched immediately by addition of 80 μL of 0.1M ammonium bicarbonate solution in water/acetonitrile (4:1, pH 8) to arrest proteolytic activity. 30 μL aliquot was analyzed by analytical RP-HPLC. Analytical RP-HPLC method: Agilent Polaris C8-A column (4.6×100 mm, 3 micron) eluted with a linear binary gradient of 10-90% MeCN (0.1% TFA v/v) in water (0.1% TFA v/v) over either 10 or 15 mins at 1.5 mL min-1 at 40° C. with detection by UV absorption at 210 nm. Manual integration (AUC) allowed estimation of remaining intact peptide over the time course of the experiment.

[6] = system: GLP-1R knockout (KO) mice; assay: Glucose change in GLP-1R knockout mice; assay type: in vivo, mouse; conditions: GLP-1R KO mice, s.c., 3 nmol/kg, 120 min vs 0 min, no somatostatin pretreatment
Procedure, shortened: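 GLP-1R knockout mice (n=4-8/group, sorted by body weight) were fasted 2 h, and in some studies pretreated with octreotide 10 mg/kg 30 min before peptide injection. Mice were reused up to 3 times with at least 1-week wash-out.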

[7] = target: human glucagon receptor (hGCGR) (Homo sapiens, UniProt P47871); assay: cAMP production (HTRF) in CHO cells expressing hGCGR; assay type: cell-based; set-up: expressed in transfected cells; conditions: Table 6, peptides modified at position 17; cAMP in CHO hGCGR cells; geometric mean; read-out: hGluc-R EC50
Sequence of human glucagon receptor (hGCGR) (P47871 26-477): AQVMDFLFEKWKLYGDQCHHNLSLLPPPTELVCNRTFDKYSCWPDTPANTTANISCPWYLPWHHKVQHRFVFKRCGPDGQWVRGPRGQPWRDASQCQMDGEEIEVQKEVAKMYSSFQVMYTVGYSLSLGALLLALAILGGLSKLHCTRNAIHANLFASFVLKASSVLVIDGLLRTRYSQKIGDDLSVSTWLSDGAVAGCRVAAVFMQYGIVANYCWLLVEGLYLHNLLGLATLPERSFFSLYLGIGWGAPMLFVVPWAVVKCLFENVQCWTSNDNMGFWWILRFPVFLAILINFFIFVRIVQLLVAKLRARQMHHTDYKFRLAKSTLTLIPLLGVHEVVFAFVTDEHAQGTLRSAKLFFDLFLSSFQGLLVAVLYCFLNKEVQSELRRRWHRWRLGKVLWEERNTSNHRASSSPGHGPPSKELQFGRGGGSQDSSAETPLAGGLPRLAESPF
Procedure, shortened: as §1

[8] = in vivo; conditions: male, C57BL/6, mouse, 10 nmol/kg; for half-life: iv
From the text: Selected test peptides (n=8) were profiled for pharmacokinetic (PK) properties in the mouse after single intravenous (i.v.) or subcutaneous (s.c.) dose. A subset (n=4) meeting the acceptance criteria was subsequently profiled in the dog (single i.v. dose) and non-human primate (single i.v. and s.c. dose). […] Low-binding plasticware containers were used during preparation and sample handling to avoid non-specific binding.
After dosing, PK samples were collected from the dorsal metatarsal vein. Blood of each sample was transferred into plastic micro centrifuge tubes containing EDTA-K2, inverted several times for proper mixing of contents and then placed on wet ice. The blood samples were centrifuged at 4° C. to obtain plasma and stored at −75° C. prior to analysis.
Samples analysis: Samples were analyzed by LC-MS/MS. Calibration standards were injected at the beginning and end of each batch and the determined concentration for each prepared standard was used to construct a calibration curve. Plasma and dose aliquot sample concentrations were determined from the plasma calibration curve.
Data analysis: Plasma concentration data was analyzed by non-compartmental analysis (NCA) using Phoenix Winnonlin v. 8.3.3.33. Linear trapezoidal rule was used for increasing values and log trapezoidal rule was used for decreasing values, applying uniform weighting for lambda_z calculations. Subcutaneous bioavailability was calculated as the ratio AUC(s.c.)0-inf/AUC(i.v.)0-inf. Reported values (Table 18) represent the mean of the individual estimates.

Row | Structure (SMILES) | pEC50 [1] | % Relative Potency Ratio [1] | remaining at 5 min, 3.3 mg/mL [2] [%] | remaining at 10 min, 3.3 mg/mL [2] [%] | remaining at 0.25 h, 3.3 mg/mL [2] [%] | remaining at 0.5 h, 3.3 mg/mL [2] [%] | WT % glucose change 120 min [3] [%] | remaining at 4 h ([4]; isolated enzyme neprilysin) [%] | remaining at 24 h ([4]; isolated enzyme neprilysin) [%] | % intact peptide over time [4] [%] | remaining at 0.25 h, 125 µM [5] [%] | remaining at 0.5 h, 125 µM [5] [%] | GLP-1R KO % glucose change 120 min [6] [%] | pEC50 [7] | bioavailability [8] [%] | half-life [8] [h]
1 | CCCCCCCCCCCCCCCCCC(=O)N[C@@H](CCC(=O)N[C@@H](CCC(=O)NCCOCCOCCC(=O)NCCOCCOCCC(=O)NCCCC[C@H](NC(=O)[C@H](CO)NC(=O)[C@H](CC(=O)O)NC(=O)[C@H](CC(C)C)NC(=O)[C@](C)(Cc1ccccc1)NC(=O)[C@H](CCCCN)NC(=O)[C@H](CO)NC(=O)[C@@H](NC(=O)[C@H](CC(=O)O)NC(=O)[C@H](CO)NC(=O)[C@@H](NC(=O)[C@](C)(Cc1ccccc1)NC(=O)[C@H](CO)NC(=O)CNC(=O)[C@H](CCC(N)=O)NC(=O)[C@H](CO)NC(=O)[C@@H](N)Cc1c[nH]cn1)[C@@H](C)O)C(C)C)C(=O)N[C@@H](C)C(=O)N[C@@H](C)C(=O)N[C@@H](CCC(N)=O)C(=O)N[C@@H](CC(=O)O)C(=O)N[C@@](C)(Cc1ccccc1)C(=O)N[C@H](C(=O)N[C@@H](CCC(N)=O)C(=O)NC(C)(C)C(=O)N[C@@H](CC(C)C)C(=O)N[C@@H](CCC(=O)O)C(=O)N[C@@H](C)C(=O)NCC(=O)NCC(N)=O)C(C)C)C(=O)O)C(=O)O [Peptide 78] (H-HSQGS[αMeF]TSDVSK[αMeF]LDSK([PEG2-PEG2-γGlu-γGlu-Stearoyl])AAQD[αMeF]VQ[Aib]LEAGG-NH2; N-terminus assumed) | 11.95 | 15.6 | 83 | 76 | 69 | 58 | −42.0 | 100 | 100 | 100 | 100 | 100 | 51.3 | 11.05 |  | 
2 | CC(C)C[C@H](NC(=O)[C@H](Cc1c[nH]c2ccccc12)NC(=O)[C@H](CCCNC(=N)N)NC(=O)[C@@H](NC(=O)[C@H](Cc1ccccc1)NC(=O)[C@H](CC(=O)O)NC(=O)[C@H](CCC(N)=O)NC(=O)[C@H](C)NC(=O)[C@H](CCCNC(=N)N)NC(=O)[C@H](CCCCNC(=O)COCCOCCNC(=O)COCCOCCNC(=O)CC[C@H](NC(=O)CCCCCCCCCCCCCCCCC(=O)O)C(=O)O)NC(=O)[C@H](CCCCN)NC(=O)[C@H](CC(=O)O)NC(=O)[C@H](CC(C)C)NC(=O)[C@](C)(Cc1ccccc1)NC(=O)[C@H](CCCCN)NC(=O)[C@H](CO)NC(=O)[C@@H](NC(=O)[C@H](CC(=O)O)NC(=O)[C@H](CO)NC(=O)[C@@H](NC(=O)[C@H](Cc1ccccc1)NC(=O)[C@@H](NC(=O)CNC(=O)[C@H](CCC(N)=O)NC(=O)C(C)(C)NC(=O)[C@@H](N)Cc1c[nH]cn1)[C@@H](C)O)[C@@H](C)O)C(C)C)C(C)C)C(=O)N[C@@H](CC(C)C)C(=O)NC(C)(C)C(=O)N[C@@H](CCC(=O)O)C(N)=O [Peptide 420] (H-H[Aib]QGTFTSDVSK[αMeF]LDKK([AEEA-AEEA-γGlu-C18 diacid])RAQDFVRWLL[Aib]E-NH2; N-terminus assumed) | 10.64 | 3.2 |  |  |  |  |  |  |  |  |  |  |  | 10.43 | 49 | 5.7
3 | CC(C)C[C@H](NC(=O)[C@H](Cc1c[nH]c2ccccc12)NC(=O)[C@H](CCC(N)=O)NC(=O)[C@@H](NC(=O)[C@H](Cc1ccccc1)NC(=O)[C@H](CC(=O)O)NC(=O)[C@H](CCCNC(=N)N)NC(=O)[C@H](C)NC(=O)[C@H](CCCNC(=N)N)NC(=O)[C@H](CCCCNC(=O)COCCOCCNC(=O)COCCOCCNC(=O)CC[C@H](NC(=O)CCCCCCCCCCCCCCCCC(=O)O)C(=O)O)NC(=O)[C@H](CCCCN)NC(=O)[C@H](CC(=O)O)NC(=O)[C@H](CC(C)C)NC(=O)[C@](C)(Cc1ccccc1)NC(=O)[C@H](CCCCN)NC(=O)[C@H](CO)NC(=O)[C@@H](NC(=O)[C@H](CC(=O)O)NC(=O)[C@H](CO)NC(=O)[C@@H](NC(=O)[C@H](Cc1ccccc1)NC(=O)[C@@H](NC(=O)CNC(=O)[C@H](CCC(N)=O)NC(=O)C(C)(C)NC(=O)[C@@H](N)Cc1c[nH]cn1)[C@@H](C)O)[C@@H](C)O)C(C)C)C(C)C)C(=O)N[C@@H](CC(C)C)C(=O)NC(C)(C)C(=O)N[C@@H](CCC(=O)O)C(N)=O [Peptide 472] (H-H[Aib]QGTFTSDVSK[αMeF]LDKK([AEEA-AEEA-γGlu-C18 diacid])RARDFVQWLL[Aib]E-NH2; N-terminus assumed) | 11.12 | 2.9 |  |  |  |  |  |  |  |  |  |  |  | 10.96 | 83 | 2.9
4 | CC(C)C[C@H](NC(=O)[C@H](CC(C)C)NC(=O)[C@H](Cc1c[nH]c2ccccc12)NC(=O)[C@H](CCCNC(=N)N)NC(=O)[C@@H](NC(=O)[C@H](Cc1ccccc1)NC(=O)[C@H](CC(=O)O)NC(=O)[C@H](CCC(N)=O)NC(=O)[C@H](C)NC(=O)[C@H](CCCNC(=N)N)NC(=O)[C@H](CCCCNC(=O)COCCOCCNC(=O)COCCOCCNC(=O)CC[C@H](NC(=O)CCCCCCCCCCCCCCCCCCC(=O)O)C(=O)O)NC(=O)[C@@H](NC(=O)[C@H](CC(=O)O)NC(=O)[C@H](CC(C)C)NC(=O)[C@](C)(Cc1ccccc1)NC(=O)[C@H](CCCCN)NC(=O)[C@H](CO)NC(=O)[C@@H](NC(=O)[C@H](CC(=O)O)NC(=O)[C@H](CO)NC(=O)[C@@H](NC(=O)[C@H](Cc1ccccc1)NC(=O)[C@@H](NC(=O)CNC(=O)[C@H](CCC(N)=O)NC(=O)C(C)(C)NC(=O)[C@@H](N)Cc1c[nH]cn1)[C@@H](C)O)[C@@H](C)O)C(C)C)[C@@H](C)O)C(C)C)C(=O)N[C@@H](C)C(=O)NC(C)(C)C(=O)NCC(N)=O [Peptide 477] (H-H[Aib]QGTFTSDVSK[αMeF]LDTK([AEEA-AEEA-γGlu-C20 diacid])RAQDFVRWLLA[Aib]G-NH2; N-terminus assumed) | 10.27 | 4.3 |  |  |  |  |  |  |  |  |  |  |  | 9.93 | 50 | 8.9
